The source of these data is patent US12655106B2 (Eikonizo Therapeutics, Inc., priority 2021, dated 2026).

Assay [1] addresses T1, Full length Human HDAC8 (Homo sapiens, UniProt Q9BY41).
T1 construct: Full length Human HDAC8; HIS (N); host or cells: baculovirus expression system
T1 sequence (Q9BY41 1-377): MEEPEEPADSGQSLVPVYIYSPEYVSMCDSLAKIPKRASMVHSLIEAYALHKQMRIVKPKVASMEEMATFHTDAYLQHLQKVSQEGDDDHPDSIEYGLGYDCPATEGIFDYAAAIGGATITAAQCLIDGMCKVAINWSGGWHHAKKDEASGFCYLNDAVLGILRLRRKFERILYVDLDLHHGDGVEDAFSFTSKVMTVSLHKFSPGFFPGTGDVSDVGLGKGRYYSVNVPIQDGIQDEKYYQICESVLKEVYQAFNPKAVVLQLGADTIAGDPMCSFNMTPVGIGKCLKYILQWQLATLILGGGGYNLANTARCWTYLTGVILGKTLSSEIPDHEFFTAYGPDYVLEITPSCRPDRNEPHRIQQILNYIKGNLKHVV
Nature of the assay: Caliper endpoint assay for HDAC enzymatic activity (HDAC8). The assay is classed as biochemical. As to conditions: in vitro enzymatic, 30 min pre-incubation, 1 μM substrate peptide.

In assay [2] the target is T2, Full length Human HDAC6 (Homo sapiens, UniProt Q9UBN7).
T2 construct: Full length Human HDAC6; FLAG (C); host or cells: baculovirus expression system
T2 sequence (Q9UBN7 1-1215): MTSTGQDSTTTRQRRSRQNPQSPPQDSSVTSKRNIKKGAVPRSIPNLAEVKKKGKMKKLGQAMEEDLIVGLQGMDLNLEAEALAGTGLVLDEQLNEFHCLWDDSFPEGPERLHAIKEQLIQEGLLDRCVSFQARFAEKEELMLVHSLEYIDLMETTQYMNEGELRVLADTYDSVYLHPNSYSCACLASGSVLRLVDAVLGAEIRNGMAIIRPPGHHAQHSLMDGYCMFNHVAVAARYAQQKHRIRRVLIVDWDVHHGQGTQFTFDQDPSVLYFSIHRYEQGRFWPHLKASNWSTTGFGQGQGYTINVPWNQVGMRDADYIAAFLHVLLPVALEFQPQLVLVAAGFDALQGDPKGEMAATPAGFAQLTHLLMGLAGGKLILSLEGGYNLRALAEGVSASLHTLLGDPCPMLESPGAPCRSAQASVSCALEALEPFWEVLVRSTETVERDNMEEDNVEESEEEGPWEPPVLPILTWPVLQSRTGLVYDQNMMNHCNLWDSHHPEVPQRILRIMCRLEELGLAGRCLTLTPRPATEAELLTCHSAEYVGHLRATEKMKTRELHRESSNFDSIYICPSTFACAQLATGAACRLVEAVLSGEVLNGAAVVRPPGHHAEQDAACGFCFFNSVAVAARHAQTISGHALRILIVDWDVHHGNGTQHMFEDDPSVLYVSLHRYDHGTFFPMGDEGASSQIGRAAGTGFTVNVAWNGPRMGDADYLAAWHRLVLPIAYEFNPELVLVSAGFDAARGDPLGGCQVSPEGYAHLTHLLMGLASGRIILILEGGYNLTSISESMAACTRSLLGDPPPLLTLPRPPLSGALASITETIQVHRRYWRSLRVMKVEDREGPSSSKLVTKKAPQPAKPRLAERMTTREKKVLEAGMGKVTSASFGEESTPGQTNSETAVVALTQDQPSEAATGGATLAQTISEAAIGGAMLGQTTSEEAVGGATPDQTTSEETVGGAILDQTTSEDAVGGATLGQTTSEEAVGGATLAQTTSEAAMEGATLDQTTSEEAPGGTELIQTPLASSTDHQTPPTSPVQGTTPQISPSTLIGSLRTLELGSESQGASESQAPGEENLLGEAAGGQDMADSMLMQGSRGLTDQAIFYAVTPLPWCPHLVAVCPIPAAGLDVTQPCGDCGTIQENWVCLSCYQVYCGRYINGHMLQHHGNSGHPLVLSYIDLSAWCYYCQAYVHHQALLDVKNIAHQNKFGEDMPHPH
Kind of assay: Caliper endpoint assay for HDAC enzymatic activity (HDAC6). The class given is biochemical. The note with it: for IC50: in vitro enzymatic, Caliper endpoint assay, 30 min pre-incubation, 1 μM substrate peptide; for Selectivity (6 v 8): ratio of HDAC8 IC50/HDAC6 IC50.

As a reminder, the IC50 is the concentration needed to halve the response being measured. Low values mean greater potency in that assay, high ones weaker potency in that assay.

In assay [1], `O=C(NO)c1cc(F)cc(CN2CCC3(CCCCC3)CC2)c1` [Compound 276, 3-((3-azaspiro[5.5]undecan-3-yl)methyl)-5-fluoro-N-hydroxybenzamide] came in with a half-inhibitory concentration (IC50) of 1 to 10 µM. Besides, in assay [2], the half-maximal inhibitory concentration (IC50) fell in the range of 10 to 100 µM and the “Selectivity (6 v 8)” value is recorded as “I (I: 0.1-1)”.

`CN1CC2(CC(N3CCc4cc(C(=O)NO)cc(F)c4C3)C2)C1` [Compound 290, 8-fluoro-N-hydroxy-2-(2-methyl-2-azaspiro[3.3]heptan-6-yl)-1,2,3,4-tetrahydroisoquinoline-6-carboxamide]: the half-maximal inhibitory concentration (IC50) in assay [1] fell in the range of 1 to 10 µM. For the same compound, in assay [2], the half-inhibitory concentration (IC50) was in the range of 0.001 to 0.1 µM and the “Selectivity (6 v 8)” value is “IV (IV: >100-1000)”.

As for `O=C(NO)c1cc(F)c2c(c1)CCN([C@H]1C[C@]3(CCCCO3)C1)C2` (single isomer, unassigned) [Compound 339, 8-fluoro-2-(5-oxaspiro[3.5]nonan-2-yl)-3,4-dihydro-1H-isoquinoline-6-carbohydroxamic acid], the values for the IC50 in assay [1] and in assay [2] were 10 to 100 µM and 0.001 to 0.1 µM, respectively. The “Selectivity (6 v 8)” value in assay [2] was “IV (IV: >100-1000)”.

Consider `CC[C@@H]1Cc2c(F)cc(C(=O)NO)cc2CN1C1CC(C)(C)C1` (single isomer, unassigned) [Compound 592], for which the IC50 in assay [1] lay in the range of 10 to 100 µM. Further, in assay [2], the IC50 fell in the range of 0.1 to 1 µM and the “Selectivity (6 v 8)” value is “IV (IV: >100-1000)”.

Consider `O=C(NO)c1cc(F)c2c(c1)CCN(C1CCC3(CCCCC3)CC1)C2` [Compound 182, 8-fluoro-2-spiro[5.5]undecan-3-yl-3,4-dihydro-1H-isoquinoline-6-carbohydroxamic acid], for which the IC50 in assay [1] is 10 to 100 µM; in assay [2], 0.001 to 0.1 µM. Also, in assay [2], the “Selectivity (6 v 8)” value was “IV (IV: >100-1000)”.

With `O=C(NO)c1cc(F)c2c(c1)CN1CCC[C@H]1C2` [Compound 123], in assay [1], the IC50 was in the range of 1 to 10 µM. Moreover, in assay [2], the IC50 lay in the range of 0.1 to 1 µM and the “Selectivity (6 v 8)” value is reported as “III (III: >10-100)”.

For `CNC12CC(CN3CCc4cc(C(=O)NO)cc(F)c4C3)(C1)C2` [Compound 487, 8-fluoro-2-[[3-(methylamino)-1-bicyclo[1.1.1]pentanyl]methyl]-3,4-dihydro-1H-isoquinoline-6-carbohydroxamic acid], in assay [1], the half-inhibitory concentration (IC50) was in the range of 1 to 10 µM. Besides, in assay [2], the 50% inhibitory concentration (IC50) was in the range of 0.001 to 0.1 µM and the “Selectivity (6 v 8)” value was “IV (IV: >100-1000)”.

Consider `O=C(NO)c1cc(F)c2c(c1)CCN(C1CC3(C1)CN(C1CC1)C3)C2` [Compound 291, 2-(2-cyclopropyl-2-azaspiro[3.3]heptan-6-yl)-8-fluoro-N-hydroxy-1,2,3,4-tetrahydroisoquinoline-6-carboxamide], for which the IC50 in assay [1] was in the range of 1 to 10 µM. Also, in assay [2], the concentration for half-maximal inhibition (IC50) lay in the range of 0.001 to 0.1 µM and the “Selectivity (6 v 8)” value is “IV (IV: >100-1000)”.

`CC[C@@H]1Cc2c(F)cc(C(=O)NO)cc2CN1C1CC2(CCN(C3CC3)CC2)C1` (single isomer, unassigned) [Compound 598] gave a concentration for half-maximal inhibition (IC50) in assay [1] of 10 to 100 µM. In addition, in assay [2], the IC50 was 0.1 to 1 µM and the “Selectivity (6 v 8)” value is “IV (IV: >100-1000)”.

Compound `CC(=O)N1CCCCC12CC(N1CCc3cc(C(=O)NO)cc(F)c3C1)C2` (stereo not drawn) [Compound 355, 2-(5-acetyl-5-azaspiro[3.5]nonan-2-yl)-8-fluoro-3,4-dihydro-1H-isoquinoline-6-carbohydroxamic acid] gave a half-inhibitory concentration (IC50) in assay [1] of 10 to 100 µM. For the same compound, in assay [2], the IC50 was 0.001 to 0.1 µM and the “Selectivity (6 v 8)” value is “V (V: >1000)”.

For the compound `O=C(NO)c1cc(F)c2c(c1)CCN([C@H]1CC[C@@]13CCOC3)C2` (single isomer, unassigned) [Compound 315], the results for the IC50 in assay [1] and in assay [2] were 10 to 100 µM and 0.001 to 0.1 µM, respectively. In addition, in assay [2], the “Selectivity (6 v 8)” value is on record as “IV (IV: >100-1000)”.

In assay [1], `CC[C@H]1Cc2c(F)cc(C(=O)NO)cc2CN1C[C@@H]1CCCCO1` (single isomer, unassigned) [Compound 229] returned an IC50 of 1 to 10 µM. For the same compound, in assay [2], the IC50 fell in the range of 0.1 to 1 µM and the “Selectivity (6 v 8)” value was “III (III: >10-100)”.

With `O=C(NO)c1ccc2c(c1)C[C@H]1CCCN1C2` [Compound 122], the IC50 was in the range of 1 to 10 µM in assay [1] and 0.1 to 1 µM in assay [2]. In addition, the “Selectivity (6 v 8)” value in assay [2] is “III (III: >10-100)”.

With `CC[C@@H]1Cc2c(F)cc(C(=O)NO)cc2CN1C1CCCCC1` (single isomer, unassigned) [Compound 582], the half-maximal inhibitory concentration (IC50) in assay [1] fell in the range of 10 to 100 µM; in assay [2] it was 0.1 to 1 µM. For the same compound, in assay [2], the “Selectivity (6 v 8)” value is on record as “III (III: >10-100)”.

In assay [1], `O=C(NO)c1ccc2c(c1)CCN1CCC[C@H]21` [Compound 148] yielded an IC50 of 1 to 10 µM. Also, in assay [2], the IC50 lay in the range of 1 to 10 µM and the “Selectivity (6 v 8)” value was “II (II: >1-10)”.

Consider `CN1C[C@@]2(CN3CCc4cc(C(=O)NO)cc(F)c4C3)C[C@@H]1CO2` [Compound 474, 8-fluoro-2-[[(1S,4R)-5-methyl-2-oxa-5-azabicyclo[2.2.1]heptan-1-yl]methyl]-3,4-dihydro-1H-isoquinoline-6-carbohydroxamic acid], for which the results for the IC50 in assay [1] and in assay [2] were 1 to 10 µM and 0.001 to 0.1 µM, respectively. Further, the “Selectivity (6 v 8)” value in assay [2] is reported as “IV (IV: >100-1000)”.

In the case of `CN1CC2(CCC(CN3CCc4cc(C(=O)NO)cc(F)c4C3)CC2)C1` [Compound 465, 8-fluoro-2-[(2-methyl-2-azaspiro[3.5]nonan-7-yl)methyl]-3,4-dihydro-1H-isoquinoline-6-carbohydroxamic acid], the IC50 was in the range of 10 to 100 µM in assay [1] and 0.001 to 0.1 µM in assay [2]. Besides, the “Selectivity (6 v 8)” value in assay [2] is recorded as “V (V: >1000)”.

Turning to `CN1CC[C@@]2(CC[C@H](N3CCc4cc(C(=O)NO)cc(F)c4C3)C2)C1` (single isomer, unassigned) [Compound 405], in assay [1], the IC50 was more than 100 µM. Besides, in assay [2], the IC50 fell in the range of 0.001 to 0.1 µM and the “Selectivity (6 v 8)” value is given as “V (V: >1000)”.

With `CC[C@@H]1Cc2c(F)cc(C(=O)NO)cc2CN1C1CC2(CCN(C)CC2)C1` (single isomer, unassigned) [Compound 594], the concentration for half-maximal inhibition (IC50) in assay [1] was more than 100 µM; in assay [2], 0.001 to 0.1 µM. In addition, the “Selectivity (6 v 8)” value in assay [2] is recorded as “V (V: >1000)”.

In turn, `CC[C@H]1Cc2c(F)cc(C(=O)NO)cc2CN1C1CCCCC1` (single isomer, unassigned) [Compound 583] had an IC50 in assay [1] of 10 to 100 µM. Further, in assay [2], the concentration for half-maximal inhibition (IC50) lay within 0.1 to 1 µM and the “Selectivity (6 v 8)” value is “III (III: >10-100)”.

In the case of `CC[C@H]1Cc2c(F)cc(C(=O)NO)cc2CN1C1CC2(C1)CN(C)C2` (single isomer, unassigned) [Compound 585], the 50% inhibitory concentration (IC50) in assay [1] lay within 1 to 10 µM. In assay [2], the IC50 fell in the range of 0.1 to 1 µM and the “Selectivity (6 v 8)” value is listed as “III (III: >10-100)”.

The compound `O=C(NO)c1cc(F)c2c(c1)CCN(C1CC[C@]13CCCO3)C2` (single isomer, unassigned) [Compound 320] returned an IC50 in assay [1] of 10 to 100 µM. Besides, in assay [2], the half-inhibitory concentration (IC50) is 0.001 to 0.1 µM and the “Selectivity (6 v 8)” value was “IV (IV: >100-1000)”.

In the case of `O=C(NO)c1cc(F)c2c(c1)C[C@@H]1CCCCN1C2` [Compound 93], the 50% inhibitory concentration (IC50) in assay [1] was in the range of 1 to 10 µM. Moreover, in assay [2], the IC50 lay within 0.001 to 0.1 µM and the “Selectivity (6 v 8)” value was “IV (IV: >100-1000)”.

On to `O=C(NO)c1cc(F)c2c(c1)CCN(CC13CC(C1)N(C1CC1)C3)C2` [Compound 491, 2-[(2-cyclopropyl-2-azabicyclo[2.1.1]hexan-4-yl)methyl]-8-fluoro-3,4-dihydro-1H-isoquinoline-6-carbohydroxamic acid], for which the half-inhibitory concentration (IC50) in assay [1] was in the range of 10 to 100 µM. In addition, in assay [2], the IC50 was 0.001 to 0.1 µM and the “Selectivity (6 v 8)” value is recorded as “IV (IV: >100-1000)”.

With `O=C(NO)c1cc(F)c2c(c1)CCN(CC1C3CNCC1C3)C2` (stereo not drawn) [Compound 493], in assay [1], the 50% inhibitory concentration (IC50) lay in the range of 10 to 100 µM. In addition, in assay [2], the IC50 lay within 0.001 to 0.1 µM and the “Selectivity (6 v 8)” value is “IV (IV: >100-1000)”.
